Reference: US20040059104A1, “Nucleotide mimics and their prodrugs” (priority 2002, published 2004)

Experiments:
[1] = target: T1, HIV Reverse Transcriptase (Type B, 66 kDa subunit) (Human immunodeficiency virus type 1 group M subtype B, UniProt P04585); test: HIV Reverse Transcriptase inhibition assays (RNA-directed DNA polymerization, PicoGreen fluorescence); type: biochemical; details: Table 1; template (homopolymer or heteropolymer RNA) not stated; read-out: Ki, Inhibition of HIV Reverse Transcriptase by Nucleotide Mimics
T1 construct: purified HIV Reverse Transcriptase (Type B, 66 kDa subunit)
Procedure: The assays employed to measure inhibition of HIV Reverse Transcriptase (HIV RT) catalyzed/RNA-directed DNA polymerization are described below. The effectiveness of the compounds of the present invention as inhibitors of HIV RT-catalyzed DNA polymerization was measured in the following assays.
This assay was used to measure the ability of the nucleotide mimics of the present invention to inhibit the enzymatic synthesis of complementary strand DNA from a DNA-primed template of homopolymeric RNA. This assay is a modification of a published procedure (Seville, et al., “Fluorometric Assay for DNA Polymerases and Reverse Transcriptase”, BioTechniques 1996, 21, 664-72).
The compounds were tested at various concentrations up to 500 μM final concentration. DNA polymerase activity was measured in a reaction buffer containing primed-RNA template and dTTP diluted to appropriate concentrations in assay buffer. Nucleotide mimics of the present invention were diluted in buffer and pipetted into the wells of a 96-well plate. The reaction was initiated by addition of enzyme and allowed to proceed at 37° C. for 10 minutes. The reaction was quenched by addition of 5 μL 0.2 M EDTA, pH 8.0.
200 μL of diluted PicoGreen dsDNA Quantitation Reagent (Molecular Probes, Inc, Eugene, Oreg.) was added to each well of a 96-well plate and incubated at room temperature for 5 minutes. Plate wells were read on a microplate fluorometer (Molecular Devices Corp., Sunnyvale, Calif.). The wells were excited at 480 nm and the fluorescence emission intensity (RFU) was measured at 520 nm. The percentage of inhibition was calculated according to the following equation:
% Inhibition=[1−(RFU in test reaction−RFU in blank)/(RFU in control reaction−RFU in blank)]×100.
Each inhibitor was titrated over an appropriate range of concentrations, and inhibition constants were determined using the following equations:
v=Vm[S]/(Km(1+[I]/Ki)+[S])
Certain compounds of the present invention were also tested to determine their ability to inhibit HIV RT-catalyzed DNA polymerization on a heteropolymeric primed-RNA template in the presence of all four natural deoxynucleotide triphosphate (dNTP) substrates. This assay is a modification of a published procedure (Parker et al., “Mechanism of Inhibition of Human Immunodeficiency Virus Type 1 Reverse Transcriptase and Human DNA Polymerases α, β, and γ by the 5′-Triphosphates of Carbovir,3′-Azido-3′-deoxythymidine,2′-3′-Dideoxyguanosine, and 3′-Deoxythymidine”, J. Biol. Chem. 1991, 266 (3), 1754-62).
HIV RT DNA polymerase activity was measured in a reaction buffer containing primed-ribosomal RNA template and dNTPs diluted to appropriate concentrations in assay buffer and pipetted into 1.5 mL microcentrifuge tubes. Nucleotide mimics of the present invention were diluted in buffer and tested at various concentrations up to 5 μM final concentration. The reaction was initiated by addition of enzyme and allowed to proceed at 42° C. for 60 to 90 minutes. The reaction was quenched by addition of 12 μL 0.2 M EDTA, pH 8.0.
50 μL each of reaction was transferred to the well of a 96-well plate (in duplicate). 200 μL of diluted PicoGreen dsDNA Quantitation Reagent was added to each well of a 96-well plate and incubated at room temperature for 5 minutes. Plate wells were read on a microplate fluorometer. The wells were excited at 480 nm and the fluorescence emission intensity (RFU) was measured at 520 nm. The percentage of inhibition and inhibition constants […] were determined for representative compounds as described above.

in vitro = details: bovine, serum, Half-Life, Serum Half-Lives of NTPs and AZT Triphosphate Mimics

**Q.** With `[BH3-][P+](O)(OCC1OC(n2cc(C)c(=O)[nH]c2=O)CC1N=[N+]=[N-])OP(=O)(O)C(F)(F)P(=O)(O)O` (single isomer, unassigned) [Compound 27-isomer 1, 3′-Azido-3′-deoxythymidine 5′-α-P-borano-β,γ-(difluoromethylene)triphosphate] as the compound, how does the Ki [1] read?
**A.** Its Ki is 8 nM.

**Q.** What about the half-life at 500 μM (in vitro) of the same compound?
**A.** The half-life at 500 μM was > 48 h.
